Legend:
[1] = Solubility of dye in water; type: physicochemical
[2] = Physical form: liquid crystalline behaviour in aqueous solution; type: physicochemical; settings: for Dye (1) at a dye concentration of above about 25% by weight
From the text: This is anticipated to correspond to enhanced stability against precipitation and reduced dye degradation for concentrated solutions containing the compounds used in the present invention. The difference in liquid crystalline behaviour is surprising given the structural similarity of Dye (1) and Comparative Dye (1).

SMILES | solubility in water [1] | liquid crystalline behaviour [2] | solubility in water relative to Comparative Dye (1) ([1]; ratio to Comparative Dye (1))
O=C(O)c1cc(/N=N/c2ccc(Nc3nc(NCCO)nc(Nc4ccc(/N=N/c5cc(S(=O)(=O)O)c6cccc(S(=O)(=O)O)c6c5)cc4)n3)cc2)cc(C(=O)O)c1 [Comparative Dye (1), reference compound] | 15 % of dye by weight | no liquid crystalline behaviour | –
O=C(O)c1cc(/N=N/c2ccc(Nc3nc(Nc4ccc(/N=N/c5cc(S(=O)(=O)O)c6cccc(S(=O)(=O)O)c6c5)cc4)nc(N(CCO)CCO)n3)cc2)cc(C(=O)O)c1 [Dye (1)] | 30 % of dye by weight | exhibited liquid crystalline characteristics | twice

Reference: US7927411B2, “Compound, ink, process and use” (Fujifilm Imaging Colorants Limited, priority 2007, dated 2011)
